According to ChEMBL document CHEMBL3217741, “Synthesis of 1,4-triazole linked zanamivir dimers as highly potent inhibitors of influenza A and B” (Medchemcomm, 2013):

Tested on: Influenza B virus
Assay: microbe, parasite or virus in culture
Conditions: B/Harbin/07/94, MDCK, 72 h
Description: Antiviral activity against Influenza B virus (B/Harbin/07/94) infected in MDCK cells assessed as reduction of virus-induced cytopathic effect after 72 hrs by MTT assay

| Structure (SMILES) | EC50 |
| --- | --- |
| CC(=O)N[C@H]1[C@H]([C@H](OC(=O)NCCCCc2cn(CCCNC(=O)O[C@@H]([C@@H]3OC(C(=O)O)=C[C@H](NC(=N)N)[C@H]3NC(C)=O)[C@H](O)CO)nn2)[C@H](O)CO)OC(C(=O)O)=C[C@@H]1NC(=N)N | 0.43 nM |
| CC(=O)N[C@H]1[C@H]([C@H](OC(=O)NCCCn2cc(CCNC(=O)O[C@@H]([C@@H]3OC(C(=O)O)=C[C@H](NC(=N)N)[C@H]3NC(C)=O)[C@H](O)CO)nn2)[C@H](O)CO)OC(C(=O)O)=C[C@@H]1NC(=N)N | 0.51 nM |
| CC(=O)N[C@H]1[C@H]([C@H](OC(=O)NCCCCCCCn2cc(CCCCNC(=O)O[C@@H]([C@@H]3OC(C(=O)O)=C[C@H](NC(=N)N)[C@H]3NC(C)=O)[C@H](O)CO)nn2)[C@H](O)CO)OC(C(=O)O)=C[C@@H]1NC(=N)N | 0.32 nM |
| CC(=O)N[C@H]1[C@H]([C@H](OC(=O)NCCCn2cc(CCCc3cn(CCCNC(=O)O[C@@H]([C@@H]4OC(C(=O)O)=C[C@H](NC(=N)N)[C@H]4NC(C)=O)[C@H](O)CO)nn3)nn2)[C@H](O)CO)OC(C(=O)O)=C[C@@H]1NC(=N)N | 0.65 nM |
| CCOC(=O)C1=C[C@@H](OC(CC)CC)[C@H](NC(C)=O)[C@@H](N)C1 [OSELTAMIVIR] | 583 nM |
| CC(=O)N[C@H]1[C@H]([C@H](OC(=O)NCCCCCn2cc(CCCCNC(=O)O[C@@H]([C@@H]3OC(C(=O)O)=C[C@H](NC(=N)N)[C@H]3NC(C)=O)[C@H](O)CO)nn2)[C@H](O)CO)OC(C(=O)O)=C[C@@H]1NC(=N)N | 0.79 nM |
| CC(=O)N[C@H]1[C@H]([C@H](OC(=O)NCCCCCCCCc2cn(CCCCCCCNC(=O)O[C@@H]([C@@H]3OC(C(=O)O)=C[C@H](NC(=N)N)[C@H]3NC(C)=O)[C@H](O)CO)nn2)[C@H](O)CO)OC(C(=O)O)=C[C@@H]1NC(=N)N | 0.39 nM |
| CC(=O)N[C@H]1[C@H]([C@H](OC(=O)NCCCCCn2cc(CCCCCc3cn(CCCCCNC(=O)O[C@@H]([C@@H]4OC(C(=O)O)=C[C@H](NC(=N)N)[C@H]4NC(C)=O)[C@H](O)CO)nn3)nn2)[C@H](O)CO)OC(C(=O)O)=C[C@@H]1NC(=N)N | 0.88 nM |
| CC(=O)N[C@H]1[C@H]([C@H](O)[C@H](O)CO)OC(C(=O)O)=C[C@@H]1NC(=N)N [ZANAMIVIR] | 149 nM |
